Results from patent US20130023002A1, “USE OF A SUBSTRATE IN A METHOD FOR MEASURING THE ACTIVITY OF AVAILABLE PROTEOLYTIC ENZYMES” (priority 2011, published 2013).

Columns and labels:
[1] = test system: low-molecular-weight heparin, Fragmine® (anti-Xa activity, factor Xa); test: Evaluation of neutralization of low-molecular-weight heparin by enzyme substrates (anti-Xa activity); assay type: biochemical
Description: (§1) Before referring to the diagrams of the figures, the evaluation method used to quantify the neutralizing effect of the proteolytic enzyme substrates with respect to the glycosaminoglycans in a blood sample, and in particular a plasma, will be described. This evaluation method makes it possible to use both unfractionated heparins and low-molecular-weight heparins. In addition, the method endeavors to test the activity of factor Xa, located at the crossroads of two enzymatic cascades resulting in the formation of thrombin. Moreover, antithrombin, which is a natural inhibitor of thrombin generation, controls the reaction. As soon as it appears, factor Xa couples to its natural substrate, prothrombin, so as to form thrombin. The heparin contained in the sample forms, itself, a complex with antithrombin, which complex promotes the inhibition of factor Xa.
Thus, a chromogenic substrate based on para-nitroaniline, which factor Xa hydrolyzes, is used and the release of the para-nitroaniline, which can be measured optically, is then inversely proportional to the concentration of heparin present in the medium. A measurement of the anti-Xa activity is thus deduced therefrom.
More specifically, the percentage neutralization by the substrate is determined as being the ratio of the difference in the variation in anti-Xa activity in the medium containing the physiological saline and in the medium containing the substrate, between two heparin concentrations, and only the variation in activity in the medium containing the physiological saline, between the same two heparin concentrations, this ratio being multiplied by 100 in order to obtain the result as percentage neutralization.
The percentage neutralization can also be written more compactly: 100×(1−ΔA1/ΔA2), wherein ΔA1 corresponds to the variation in activity in the presence of substrate and ΔA2 to the variation in the presence of physiological saline. Thus, the parallel measurement of the variation in the presence of physiological saline makes it possible to establish the reference in each series of measurements.
Still in this first part of the description, the abovementioned evaluation method was implemented with a low-molecular-weight heparin, Fragmine®.
The results of the percentage neutralization of this heparin for the three substrate variants described above, V(1), V(2) and V(3), have been reported in the table below.

[2] = test system: unfractionated calcium heparin Calciparine® (anti-Xa activity, factor Xa); test: Evaluation of neutralization of unfractionated heparin by enzyme substrates (anti-Xa activity, para-nitroaniline chromogenic substrate); assay type: biochemical; conditions: FIG. 1, qualitative
Description: as §1
Thus, a chromogenic substrate based on para-nitroaniline, which factor Xa hydrolyzes, is used and the release of the para-nitroaniline, which can be measured optically, is then inversely proportional to the concentration of heparin present in the medium. […]
In this first example, the heparin used is an unfractionated calcium heparin sold under the brand name: “Calciparine®”. According to the evaluation method, the anti-Xa activity is recorded and transferred onto the y-axis, as a function of the heparin concentration of the medium. […]

EtM-VR-Rhod110-Ac [V(1)] showed a percentage neutralization ([1]; Fragmine® 0.42 IU/ml) of 10%, a percentage neutralization ([1]; Fragmine® 0.83 IU/ml) of 12% and a percentage neutralization ([1]; Fragmine® 1.25 IU/ml) of 13%. The percentage neutralization ([1]; Fragmine® 1.67 IU/ml) was 15%.
Z-GGR-AMC was tested, and the “effect of substrate with respect to heparin (curve compared with physiological saline)” value [2] was “no notable effect with respect to heparin”.
